Results taken from patent US8362031B2, “Lonidamine analogues and treatment of polycystic kidney disease” (University of Kansas, priority 2004, dated 2013).
Several values for one entry are separate records, joined by “and”; a condition that tells them apart may be missing. Equal entries are not always repeated. Entries after “also recorded” stand apart in the source; their conditions may differ. Where two headings read alike, the source gives them in different places.

Columns and labels:
[1] = test system: rats; assay: Toxicology: organs sectioned and examined after dosing; format: in vivo; conditions: 25 mg/kg, two animals examined, findings per animal
[2] = test system: M-1 Clone 20; human primary cyst epithelial cells (ADPKD cells); assay: MTT cell proliferation assay with cAMP (FIGS. 9A-9B); format: cell-based; conditions: 48 hours
Protocol: Various compounds were tested for their effects on cell proliferation. In the study, the cell types were M-1 Clone 20, which is an immortalized cell line that mimics PKD, and human primary cyst epithelial cells, or ADPKD cells. The compounds were tested at 1 μM to 100 μM concentrations.
M-1 clone 20 (“M1 Clone 20”) cells are a model of PKD-like cells, which were created by stably transfecting parental “normal” M-1 immortalized renal cortical collecting duct cells with the C-terminal cytosolic domain (or C-tail) of mouse polycystin-1 (the protein product of the Pkd1 gene. The overexpressed C-tail acts in a dominant-negative fashion, conferring the PKD phenotype to these cells. Their characterization is described in: Sutters, M., Yamaguchi, T., Maser, R. L., Magenheimer, B. S., St. John, P. L., Abrahamson, D. R., Grantham, J. J. and Calvet, J. P. (2001) Polycystin-1 transforms the cAMP growth-responsive phenotype of M-1 cells. Kidney Int. 60, 484-494.
FIGS. 9A-9B include graphs that show cells grown in the vehicle (i.e. DMSO at two different volumes of 1 uL and 5 uL respectively), cAMP only, and then under the treatment drugs, all of which also had cAMP in them. The comparison drug used was 10 uM of gamendazole. […] Absorbance is a measure of cell number.
The comparison drug used was 10 uM Gamendazole. The MTT cell proliferation assay was carried out to assess cell number—cell proliferation is essentially cell number. […] Thus, absorbance is a measure of cell number, or cell proliferation. The reference bar is the third bar from the left (cAMP)—the degree of inhibition should be compared to that bar.

[3] = test system: Salmonella Typhimurium TA 100; assay: Ames test for mutagenicity (plate assay, colony count); conditions: 48 hours at 37° C.
[4] = test system: Male Long Evans rats; assay: In vivo antispermatogenic testing in Long Evans rats; conditions: for Response 200 mg/kg: 200 mg/kg single i.p. injection
[5] = test system: fruitfly; assay: Reproduction of fruitfly; format: in vivo, Drosophila (fruitfly); conditions: provided to a fruitfly
Excerpt: Several known Hsp90 inhibitors are listed above. With regard to HSP90, RC-MC-110 likely a novel inhibitor of the N-terminal ATP binding site or a novel site on Hsp90. It should be noted that mutants of Hsp90 in Drosophila (fruitfly) produce sterile males and females. […] Genetics. 1999 March; 151(3):1065-79.

[6] = test system: Male Long Evans rats; conditions: rat, in vivo, 5 days
[7] = animals responding out of animals surviving, five days following injection

Row | SMILES | Toxicology: liver, lung, pancreas, spleen, heart and kidney (histology) [1] | Inhibition of cell proliferation (MTT absorbance) ([2]; 10 uM) | Inhibition of cell proliferation (MTT absorbance) ([2]; 25 uM) | Ames test (+)S9 0.1 mg/pl. ([3]; (+)S9 mix, 0.1 mg/pl.) | Ames test (+)S9 1 mg/pl. ([3]; (+)S9 mix, 1 mg/pl.) | Ames test (+)S9 10 mg/pl. ([3]; (+)S9 mix, 10 mg/pl.) | Ames test (−)S9 0.1 mg/pl. ([3]; (−)S9 mix, 0.1 mg/pl.) | Ames test (−)S9 1 mg/pl. ([3]; (−)S9 mix, 1 mg/pl.) | Ames test (−)S9 10 mg/pl. ([3]; (−)S9 mix, 10 mg/pl.) | Mortality (25 mg/kg) ([4]; 25 mg/kg single i.p. injection, […]) | Response 200 mg/kg [4, 7] | Reproduction of fruitfly [5] | Response 25 mg/kg ([4]; 25 mg/kg single i.p. injection, animals responding out of animals surviving, five days following injection) | Mortality (25 mg/kg) [6] | Mortality (200 mg/kg) [6]
1 | O=C(O)/C=C/c1nn(Cc2ccc(Cl)cc2Cl)c2cc(Cl)ccc12 [JWS-1-190, 3-[1-(2,4-dichlorobenzyl)-6-chloro-1H-indazol-3-yl]-acrylic acid] | The lung did have multiple, scattered hemorrhagic patches in the alveolar clusters; also recorded: liver, lung, pancreas, spleen, heart and kidney all appeared within normal limits | very effective | quite effective in inhibiting cell proliferation | Pass | Pass | Pass | Pass | Pass | Pass | 0/5 | 0/0 and 2/5 | – | – | – | –
2 | O=C(O)c1nn(Cc2ccc(Cl)cc2Cl)c2ccccc12 [Lonidamine, 1-(2,4,-dichlorobenzyl)-1H-indazole-3-carboxylic acid] | liver, lung, pancreas, spleen, heart and kidney all appeared normal | – | – | – | – | – | – | – | – | – | 5/5 | inhibited reproduction | 2/5 | 0/5 | 0/5
